Assay [1] relates to PC-12. Put plainly: Induction of neurite outgrowth in rat PC12 cells assessed as neurite length at 10 uM. Format: functional, cell-based.
Assay [2] has as its system PC-12. Kind of assay: Induction of neurite outgrowth in rat PC12 cells assessed as neurite length. Format: functional, cell-based.

The source made the active and inactive calls. No cut-off for these calls is given here.

With `CCCCCCC/C=C/C=C/[C@@H](O)[C@H](CO)NC(=O)CCCCCCCCCCCCCCCCCCCCC`, the outcome in assay [1] was Active.

`CCCCCCC/C=C/C=C/[C@@H](O)[C@H](CO)NC(=O)CCCCCCCCCCCCCCCCCCC`: the result in assay [1] was Active.

Turning to `CCCCCCCCC/C=C/[C@@H](O)[C@H](CO)NC(=O)CCCCCCCCCCCCCCCCCCC`, the result in assay [2] was Active.

Regarding `CCCCCCCCC/C=C/[C@@H](O)[C@H](CO)NC(=O)CCCCCCCCCCCCCCCCC`, the outcome in assay [2] was Active.

The values above are taken from ChEMBL document CHEMBL1159354, “Sphingolipids from Bombycis Corpus 101A and their neurotrophic effects” (J Nat Prod, 2003).
